Source: patent publication US20200001302A1, “MICROFLUIDIC DEVICES, SYSTEMS, INFRASTRUCTURES, USES THEREOF AND METHODS FOR GENETIC ENGINEERING USING SAME” (VALORBEC, SOCIÉTÉ EN COMMANDITE, priority 2018, published 2020)
Structures can show the parent of a compound that is named as a salt. Where two headings read alike, the source gives them in different places.

Experiments:
[1] = system: RFP gene downstream of a T7 promoter in E. coli; experiment: IPTG inducer concentration optimization, RFP expression dose-response (AIMS and macro-scale); format: cell-based; conditions: after four hours
Description: For inducer concentration optimization carried out in the macroscale, starter cultures with a RFP plasmid were prepared at OD 0.1 from overnight inoculations. The cultures were grown at 37° C. with shaking and were induced upon reaching OD 0.4. 45 mL of the culture was induced at 200 micromolar and diluted with fresh media to generate the following IPTG concentrations: 200, 133.3, 88.9, 59.3, 40, 26.7, 17.8, and 11.9 micromolar. These sub-cultures were prepared in triplicates along with a non-induced control and were induced at 37° C. and shaken for 4 hours. After induction, 200 microliters of each culture were loaded onto a 96-well plate and fluorescence at 612 nm was measured with 582 nm excitation on a TECAN Infinite M200 plate reader (Mannedorf, Switzerland) with the settings: gain of 75, 25 flashes and 20 microseconds integration time. The fluorescence intensity with increasing IPTG concentration was plotted on a logarithmic scale to generate a dose-response curve.
In the inducer concentration optimization program, three unit droplets of 1.42 microliters containing transformed RFP-cells were dispensed from the culture region and mixed with 0.3 microliters of 3.24 mM IPTG. This droplet was actuated to an empty reservoir and one daughter droplet was split from this reservoir and actuated to the incubation region. […]

H1299 cells [2] = experiment: On-chip (ACE digital microfluidic) sorafenib dose-response, cell viability by Calcein-AM cell count; format: cell-based, Human; conditions: for IC50: Homo sapiens
Text: Similarly, in the microscale, the transfection protocol is followed for seeding cells and the 7-step protocol for transfection of the pCRISPR plasmid containing sgRNA targeting eGFP or Raf-1. The standard step 7 was replaced with step 7a and step 7b. In step 7a, sorafenib tosylate in complete media was actively dispensed into unit droplets and then diluted in liquid media to form six different concentrations (0 micromolar, 7.5 micromolar, 15 micromolar, 30 micromolar, 60 micromolar, 120 micromolar) of which one droplet (0.7 microliters) was used to passively dispense onto each hydrophilic spot and the other droplet was saved for future dilutions. After all cells were interrogated with the drugs, they were incubated for two days. In step 7b, six unit droplets of 5 micromolar Calcein-AM violet stain were passively dispensed to the cells and incubated for 30 min in which images were taken to count the cells using a single module imaging pipeline. Calcein-stained image was smoothed with a Gaussian filter (G, sigma=1) and used the Otsu Global thresholding method to detect objects with diameters of 20-100 pixel units (two classes, threshold correction factor=1.25). Neighboring pixels are grouped into objects and undesired clumped objects (e.g., two close overlapping objects) are declumped using intensity segregation. The counted cells were normalized to the control (e.g., cell interrogated with no drugs). All curves were fit with a sigmoid function and probed for statistical significance using an F-test in the linear region.
To verify the effects of targeting RAF1 by genome editing and enzymatic inhibition, H1299 cells were cultured, edited, assayed, and analyzed on the ACE platform following procedures for measuring transfection and knockout efficiencies. Images of the lung cancer cells that are transfected with and without pCRISPR targeting RAF1 and treated with the sorafenib inhibitor are analysed using the standardized imaging pipeline (FIG. 39B, FIG. 51). […] The effects of RAF protein kinase inhibitor sorafenib tosylate with and without CRISPR-mediated RAF1 targeting were examined.

H1299 cells [3] = experiment: Cell viability over 7 days after RAF1 gene editing and sorafenib tosylate (FIG. 50); format: cell-based, Human; conditions: cells with both pCRISPR targeting RAF1 and 15 micromolar sorafenib tosylate added on day 2; after day 4
Description: MAPK/ERK pathway experiments. The MAPK/ERK pathway experiments used two key components: CRISPR-Cas9 genomic disruption of Raf1 and drug inhibition using sorafenib tosylate. In the macroscale, 0.75×10^5 cells/mL of H1299 cells were seeded on day 0 in 24-well plates. 600 ng of the pCRISPR plasmid targeting eGFP (control) or RAF1 was applied to the wells containing the cells on day 1. On day 3, drug conditions were added at different concentrations: 0 micromolar, 7.5 micromolar, 15 micromolar, 30 micromolar, 60 micromolar, 120 micromolar which were diluted in complete media. On day 5, 5 micromolar Calcein-AM violet stain (λex, lambda(ex)=408 nm and λem, lambda(em)=450 nm) diluted in 250 microliters fresh serum-free media was added to the cells and incubated at 37° C. for 30 min. The viability of cells was assessed by performing a fluorescence well scan using the CLARIOStar well-plate reader. The measured fluorescence was normalized to the control to determine the percent viability.
To assess the coupled effects of genome editing and drug inhibition, the H1299 cells with a pCRISPR targeting RAF1 or a control sgRNA were transfected and 15 micromolar sorafenib tosylate was added on day 2. […]
Four conditions were tested by acquiring fluorescent measurements over 7 days to assess proliferation. […] All readings were taken in triplicate and error bars represent +/−1 s.d.

[4] = On-chip beta-glucosidase colorimetric assay, blue channel pixel intensity (image-based feedback system); format: biochemical, Thermobaculum terrenum
Description: The assay on-chip included three different solutions loaded onto the DMF device reservoirs. First, a unit droplet of cell lysate was dispensed and actuated to each of the four assay mixing areas (see FIG. 5 for DMF design) using a starting voltage of 230 VRMS at 15 kHz. The lysate was prepared from a colony of BL21(DE3) transformed with a plasmid containing beta-glucosidase (BGL) gene (see FIG. 6 and FIG. 7 for plasmid map and sequence (SEQ ID NO: 1) respectively) that was grown at 37° C. and induced at 0.4 O.D (˜1.75 h starting at 0.1 O.D). The assay started by the addition of a droplet containing substrate to a droplet of cell lysate. The substrate solution contained 50 mM sodium citrate at pH 7.0 and 4 mM 4-nitrophenyl beta-D-glucopyranoside (MUG). The reactions were incubated at different times (0, 40, 80, and 120 min) and arrested by the addition of a unit droplet of 0.3 M Glycine-NaOH on the assay areas on the device. Solutions contained 0.05% final concentration of F-68 Pluronics. […]
The typical model for analyzing kinetics of a beta-glucosidase enzyme is to use a chromogenic model substrate para-nitrophenyl-beta-glucoside (pNPG) that will produce glucose and para-nitrophenol upon hydrolysis (FIG. 14). The liberation of para-nitrophenol (pNP) gives a yellow color product which can be monitored by an image-based feedback system. […]

[5] = BGL off-chip assay in well plate, absorbance at 405 nm; format: biochemical, Thermobaculum terrenum; conditions: well-plate reader
Description: Referring to FIG. 16, there is shown off-chip enzymatic assay with an absorbance readout as a function of time were collected every 30 min. Nine reactions containing equal volume of lysate with enzyme and substrate were mixed in a well of a 96 well plate. At 30 min intervals, the reaction was arrested by glycine-NaOH solution and an absorbance measurement was acquired from the product formation of pNP which gave a yellow color. Each experiment was repeated three times, and error bars are +/−1 SD.
Protein expression. The plasmid containing the cloned BGL1 gene was first transformed into E. coli BL21(DE3) for recombinant expression. The transformed cells were inoculated overnight in a 5 mL pre-culture. The following day, the culture was diluted to OD 0.05 in a 100 mL starter culture and grown at 37° C. with 200 rpm shaking. Upon reaching OD 0.4, expression of the BGL1 gene was induced by addition of 1 mM IPTG and induction was carried out under the same growth conditions for 8 hours. […]
BGL off-chip assay. […] Absorbance at 405 nm was immediately acquired after stopping each reaction on a TECAN infinite M200 plate reader with the following settings: 9 nm bandwidth, single reads per well, 25 flashes per reading, and 0 ms of settle time. Reactions with absorbance units >4 were diluted and the final absorbance was calculated from the diluted sample. […]

CC(C)S[C@@H]1O[C@H](CO)[C@H](O)[C@H](O)[C@H]1O [IPTG, isopropyl beta-D-1-thiogalactopyranoside]
IPTG concentration at which protein production was constant (comparable to basal levels) [1]: < 30 µM
IPTG concentration giving highest protein production ([1]; induced at OD 0.4): above 200 micromolar

CNC(=O)c1cc(Oc2ccc(NC(=O)Nc3ccc(Cl)c(C(F)(F)F)c3)cc2)ccn1 [sorafenib, sorafenib tosylate]
IC50 (H1299 cells [2]; NCI-H1299, read-out: inhibitory sorafenib concentration achieving half-maximal viability level (IC50), on-chip, cells transfected with pCRISPR targeting RAF1, fitted sigmoid curve): 13.2 µM
IC50 (H1299 cells [2]; NCI-H1299, read-out: inhibitory sorafenib concentration achieving half-maximal viability level (IC50), on-chip, control (guide targeting eGFP), fitted sigmoid curve): 7.54 µM
sensitivity in the linear micromolar range (H1299 cells [2]; edited H1299 cells with CRISPR-mediated RAF1 targeting): 7 to 35 µM
fold reduction of IC50 with pCRISPR targeting RAF1 versus control (H1299 cells [2]; on-chip): ~1.8 fold
basal viability level (H1299 cells [3]): ~25%

B1: beta-glucosidase: β-glucosidase (BGL) from Thermobaculum terrenum in BL21(DE3) cell lysate, plasmid pET_BGL1 of Example 1 (protein, listed as Thermobaculum terrenum)
chain: MKHLVTTLLFGLVFAAAVRAQSSRVDSLLAAMTLAEKISLLHGAIDPTGEAGAGYVPGVPRLGIPAMRLTDGPAGIRTRHPATALPAPVALAASFDPELAYRYGHVMGIEGRARRHEVLLSPMVNIVRVPEAGRNFETFSEDPLLSAEMVAAEVRGIQDAGMMATVKHYVANNFENDRMRVNVVVDERTLREIYLPGFEAAIKAGAAAVMCAYNRVNGPYACDNEMLLTDILRDEWGFEGWVMTDWFAGHSLESLVRGLDQEMPGYTIPFSSPDMPLAPAVFADSLLAAVESGRIDEAYVDRAVRRILVQMEQFGLLDGESTPPEINIEAHAAVAREVAEAGAVLLRNENQTLPLSERDLQHLVVIGPTATRPLIGGGGSSRVQPFRTTSTLAALQELAGPQAQIRYVPGIDLDGMPVPSSALRTPDGQPGLLRQGADGTTQVDAQLDFTGERALPPGSQWTWTGTLTAPTAGVYELKLQTAGGVGTLSIDGQPVLRTGMFFSDASLIPTADSLENATYRIELQAGQQLSLTVQISGQVPSLPFLPAGQNPVQVRLAWVTPERRAAFLEEAAEAARAAHAAIVFVYEEGTEGRDRETLALRPDQDALVEAVAAANPRTTVVMNVGAPTLMPWAERVGAILLMWYPGQEGGWATADVLLGRANPAGRLPVTFPRRAEDAPTASPERYPGVDLTARYDEGIFVGYRWYDAQQIEPLFPFGHGLSYTTFAYENLRVEPDGDGFVVRFVVRNTGDRAGSDVPQVYLGPPENPPVPMAVRQLVGFRRVTLAPGEAQEVTVRIDGRALSYWSVEDHAWVKATGRRTLYVGASARDLRLQTEIDVQ
first order rate constant kDMF [4]: 4.64e-05 s⁻¹
first order rate constant kPLATE [5]: 0.504 h⁻¹
